In paper PMC6268547, “A New Ursane-Type Nor-Triterpenoid from the Leaves of Eucommia ulmoides Oliv” (Molecules, 2012):

Molecular target: T1, protein tyrosine phosphatase 1B (PTP1B) (Homo sapiens, UniProt P18031)
T1 construct: gene PTPN1; Recombinant human GST-PTP1B
T1 sequence (P18031 1-435): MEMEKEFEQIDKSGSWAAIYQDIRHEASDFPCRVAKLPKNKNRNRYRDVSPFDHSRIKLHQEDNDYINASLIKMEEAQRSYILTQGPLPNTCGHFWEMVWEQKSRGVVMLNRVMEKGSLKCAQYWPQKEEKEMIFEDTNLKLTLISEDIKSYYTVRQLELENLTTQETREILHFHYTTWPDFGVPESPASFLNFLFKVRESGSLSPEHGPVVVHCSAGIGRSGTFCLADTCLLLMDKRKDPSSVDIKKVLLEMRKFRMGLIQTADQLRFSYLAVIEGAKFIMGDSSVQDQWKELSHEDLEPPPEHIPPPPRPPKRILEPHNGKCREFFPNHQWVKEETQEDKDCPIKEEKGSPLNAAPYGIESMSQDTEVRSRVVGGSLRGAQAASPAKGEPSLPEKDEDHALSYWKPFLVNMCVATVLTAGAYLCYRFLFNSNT
Experiment: pNPP hydrolysis assay with purified GST-PTP1B, absorbance at […] nm
Type: biochemical

IC50 [µM]	SMILES
0.69	C[C@H]1[C@H](C)CC[C@]2(C(=O)O)CC[C@]3(C)C(=CC[C@@H]4[C@@]5(C)C[C@@H](O)[C@H](O)C(C)(C)[C@@H]5CC[C@]43C)[C@H]12 [compound 3, corosolic acid]
3.98	C=C1[C@H](O)[C@H](O)C[C@]2(C)[C@H]3CC=C4[C@@H]5CC(C)(C)CC[C@]5(C(=O)O)CC[C@@]4(C)[C@]3(C)CC[C@@H]12 [compound 4, 2α,3α-dihydroxy-24-nor-4(23),12-oleanadien-28-oic acid]
